In brackets after ≈: the same amount, converted by molar mass. Where two headings read alike, the source gives them in different places.
Assays:
[1] = test system: Staphylococcus aureus ATCC 29213; assay: microbe, parasite or virus in culture; format: cell-based; details: for MIC: Staphylococcus aureus, ATCC29213
[2] = test system: Staphylococcus aureus MRSA MC-1; assay: microbe, parasite or virus in culture; format: cell-based; details: for MIC: Staphylococcus aureus, MRSA
M. smegmatis = assay: MIC assay; format: cell-based; details: for MIC: Mycolicibacterium smegmatis, read-out: MIC M. smegmatis
Mycobacterium avium = assay: MIC assay; format: cell-based; details: for MIC: Mycobacterium avium, read-out: MIC M. avium
Mycobacterium chelonae = assay: MIC assay; format: cell-based; details: for MIC: read-out: MIC M. chelonae
Mycobacterium fortuitum = assay: MIC assay; format: cell-based; details: for MIC: Mycolicibacterium fortuitum, read-out: MIC M. fortuitum
[3] = test system: Mycobacterium intracellulare; assay: MIC assay; format: cell-based; details: for MIC: Mycobacterium intracellulare, read-out: MIC M. intracellulare
Bacillus cereus = assay: microbe, parasite or virus in culture; format: cell-based; details: Bacillus cereus; per-compound listing, Example 6; read-out: MIC B. cereus
M. kansasii = assay: MIC assay; format: cell-based; details: for MIC: Mycobacterium kansasii, read-out: MIC M. kansasii
C. elegans = assay: motility assay; format: in vivo; design: key to Movement score, 1/1600 / Movement score, 1/800 / Movement score, 1/400 / Movement score, 1/200 / Movement score, 1/100: normal (−); slow (+); very slow (++); not motile/paralyzed (+++); details: Ive 1 ng/μL in all wells; for Movement score, 1/100: dilution 1/100 of stock (10.24 μg/μL; SK-03-92 1.024 μg/μL); for Movement score, 1/200: dilution 1/200 of stock (10.24 μg/μL; SK-03-92 1.024 μg/μL); for Movement score, 1/400: dilution 1/400 of stock (10.24 μg/μL; SK-03-92 1.024 μg/μL); for Movement score, 1/800: dilution 1/800 of stock (10.24 μg/μL; SK-03-92 1.024 μg/μL); for Movement score, 1/1600: dilution 1/1600 of stock (10.24 μg/μL; SK-03-92 1.024 μg/μL), overnight 20° C.
C. elegans L1 larvae = assay: developmental assay; format: in vivo; design: key to Developmental score, 1/1600 / Developmental score, 1/800 / Developmental score, 1/400 / Developmental score, 1/200 / Developmental score, 1/100: dead (+++); distressed (++); slightly delayed (+); the same as M9-only untreated wells (−); details: after four days, Ive 1 ng/μL in each well
[4] = Table 6, read-out: MIC S. aureus ATCC 29213

| Compound | MIC S. aureus ATCC 29213 ([1]; Table 6) | MIC S. aureus MC-1 ([2]; Table 6) | MIC M. smegmatis (M. smegmatis; Table 6) | MIC M. avium (Mycobacterium avium; Table 6) | MIC M. chelonae (Mycobacterium chelonae; Table 6) | MIC M. fortuitum (Mycobacterium fortuitum; Table 6) | MIC M. intracellulare ([3]; Table 6) | MIC [1, 4] | MIC ([2]; read-out: MIC S. aureus MC-1) | MIC (Mycobacterium avium; Table 6) | MIC (Mycobacterium chelonae; Table 6) | MIC (Mycobacterium fortuitum; Table 6) | MIC ([3]; Table 6) | MIC (M. kansasii; Table 6) | further results |
| --- | --- | --- | --- | --- | --- | --- | --- | --- | --- | --- | --- | --- | --- | --- | --- |
| N#Cc1cccc(/C=C/SC2=NCCS2)c1 [SK-04-72] | >512 µg/mL | >512 µg/mL | 64 µg/mL (≈ 260 µM) | 64 µg/mL (≈ 260 µM) | 64 µg/mL (≈ 260 µM) | 64 µg/mL (≈ 260 µM) | 64 µg/mL (≈ 260 µM) |  |  |  |  |  |  |  |  |
| COc1cc(O)cc(/C=C/Oc2cccc3ccccc23)c1 [SK-04-22] |  |  | 128 µg/mL (≈ 438 µM) |  |  |  |  | 16 µg/mL (≈ 54.7 µM) | 16 µg/mL (≈ 54.7 µM) | 64 µg/mL (≈ 219 µM) | 256 µg/mL (≈ 876 µM) | 128 µg/mL (≈ 438 µM) | 128 µg/mL (≈ 438 µM) | 64 µg/mL (≈ 219 µM) | MIC ([1]; per-compound listing, Example 6, read-out: MIC S. aureus): 32 µg/mL (≈ 109 µM); MIC ([2]; read-out: MIC MRSA): 16 µg/mL (≈ 54.7 µM); MIC (Bacillus cereus): 8 µg/mL (≈ 27.4 µM); MIC (M. smegmatis; per-compound listing, Example 6): 128 µg/mL (≈ 438 µM); Movement score, 1/100 (C. elegans): ++; Movement score, 1/200 (C. elegans): +; Movement score, 1/400 (C. elegans): +; Movement score, 1/800 (C. elegans): −; Movement score, 1/1600 (C. elegans): − |
| CCOC(=O)/C=C\Sc1ncccn1 [SK-04-58F] | >512 µg/mL | >512 µg/mL | 64 µg/mL (≈ 304 µM) | 64 µg/mL (≈ 304 µM) | 32 µg/mL (≈ 152 µM) | 64 µg/mL (≈ 304 µM) | 128 µg/mL (≈ 609 µM) |  |  |  |  |  |  |  | MIC M. kansasii (M. kansasii; Table 6): 64 µg/mL (≈ 304 µM) |
| CCOC(=O)/C=C\Sc1ccccc1C(=O)OC [SK-04-56] |  |  |  |  |  |  |  | > 512 µg/mL | > 512 µg/mL | 64 µg/mL (≈ 240 µM) | 64 µg/mL (≈ 240 µM) | 64 µg/mL (≈ 240 µM) | 256 µg/mL (≈ 961 µM) | 64 µg/mL (≈ 240 µM) | MIC (M. smegmatis; Table 6): 64 µg/mL (≈ 240 µM) |
| CCOC(=O)/C=C\Sc1nc2ccccc2s1 [SK-04-59F] | >512 µg/mL | >512 µg/mL | 16 to 32 µg/mL | 64 µg/mL (≈ 241 µM) | 8 µg/mL (≈ 30.1 µM) | 16 µg/mL (≈ 60.3 µM) | 16 µg/mL (≈ 60.3 µM) |  |  |  |  |  |  |  | MIC M. kansasii (M. kansasii; Table 6): 8 µg/mL (≈ 30.1 µM) |
| COc1cc(O)cc(/C=C/c2cccc(O)c2)c1 [SK-04-03] |  |  |  |  |  |  |  | 32 µg/mL (≈ 132 µM) | 16 µg/mL (≈ 66 µM) | 8 µg/mL (≈ 33 µM) | 64 µg/mL (≈ 264 µM) | 64 µg/mL (≈ 264 µM) | 16 µg/mL (≈ 66 µM) | 64 µg/mL (≈ 264 µM) | MIC (M. smegmatis; Table 6): 64 µg/mL (≈ 264 µM); Movement score, 1/100 (C. elegans): ++; Movement score, 1/200 (C. elegans): ++; Movement score, 1/400 (C. elegans): +; Movement score, 1/800 (C. elegans): +; Movement score, 1/1600 (C. elegans): −; Developmental score, 1/100 (C. elegans L1 larvae; dilution 1/100): +++; Developmental score, 1/200 (C. elegans L1 larvae; dilution 1/200): +; Developmental score, 1/400 (C. elegans L1 larvae; dilution 1/400): −; Developmental score, 1/800 (C. elegans L1 larvae; dilution 1/800): −; Developmental score, 1/1600 (C. elegans L1 larvae; dilution 1/1600): − |
| COc1cc(O)cc(/C=C/c2ccc(O)cc2)c1 [SK-04-02] |  |  |  |  |  |  |  | 32 µg/mL (≈ 132 µM) |  |  |  |  |  |  | MIC ([2]; Table 6, read-out: MIC S. aureus MC-1): 32 µg/mL (≈ 132 µM); MIC (M. smegmatis): 64 µg/mL (≈ 264 µM); MIC (Mycobacterium avium): 16 µg/mL (≈ 66 µM); MIC (Mycobacterium chelonae): 32 µg/mL (≈ 132 µM); MIC (Mycobacterium fortuitum): 64 µg/mL (≈ 264 µM); MIC [3]: 16 µg/mL (≈ 66 µM); MIC (M. kansasii): 32 µg/mL (≈ 132 µM) |

Reference: patent publication US8530512B2, “Broad spectrum gram-positive antimicrobials and anthelmintics with efficacy against drug-resistant strains and Mycobacterium species” (priority 2004, dated 2013)
